From DBAASP come the findings set out here.

Usually MIC stands for the smallest concentration in the dilution series that meets the test's criterion for growth inhibition.

Converted amounts (≈) assume the structure as drawn.

Common to all, as to experiment: ≥ marks a high value that may be exact or a test limit, other limits are often not marked, values filed in µg/mL are converted to µM
In assay [1] the test system is Listeria monocytogenes ATCC 19115.
The subject of assay [2] is Escherichia coli CICC 10670.
The test system of assay [3] is Salmonella enterica subsp. enterica serovar Typhimurium ATCC 14028.
For assay [4], the system named is Bacillus subtilis CMCC 63501.
The subject of assay [5] is Staphylococcus aureus ATCC 6538.
The test system of assay [6] is Saccharomyces cerevisiae.
Assay [7] deals with Candida parapsilosis ATCC 22019.
Assay [8] has as its system Staphylococcus aureus ATCC BAA-44.
Assay [9] relates to Salmonella enterica subsp. enterica serovar Enteritidis.
Assay [10] deals with Bacillus megaterium.
The test system of assay [11] is Enterococcus faecalis ATCC 29212.
For assay [12], the system named is Listeria ivanovii.
The test system of assay [13] is Escherichia coli ML-35p.
The subject of assay [14] is Klebsiella pneumoniae ATCC 13883.
The test system of assay [15] is Acinetobacter baumannii ATCC 19606.
Assay [16] relates to Pseudomonas aeruginosa ATCC 27853.
The test system of assay [17] is Escherichia coli ATCC 35218.
Assay [18] has as its system Staphylococcus aureus ST1065.
The test system of assay [19] is Staphylococcus aureus ATCC 43300.
The subject of assay [20] is Escherichia coli ATCC 25922.
For assay [21], the system named is Staphylococcus aureus ATCC 25923.
Assay [22] has as its system Candida albicans ATCC 90028.
Assay [23] relates to Staphylococcus aureus ATCC 12600.
The subject of assay [24] is Enterococcus faecalis ATCC 51299.
Assay [25] concerns Klebsiella pneumoniae ATCC BAA-2814.
The test system of assay [26] is Staphylococcus aureus ATCC BAA-2312.
Assay [27] deals with Klebsiella pneumoniae ATCC 49472.
Assay [28] relates to Enterococcus faecium ATCC 19434.
The test system of assay [29] is Escherichia coli TOP 10.
Assay [30] has as its system Escherichia coli W3110.
In assay [31] the test system is Klebsiella pneumoniae ATCC BAA-1705.
In assay [32] the test system is Staphylococcus aureus SH1000.
The subject of assay [33] is Staphylococcus aureus USA 300.
In assay [34] the test system is Staphylococcus aureus NRS 72.
Assay [35] has as its system Pseudomonas aeruginosa PAO1.
Assay [36] concerns Bacillus subtilis 168.
Assay [37] has as its system Escherichia coli DH5alpha.
For assay [38], the system named is Mycobacterium tuberculosis H37Ra.

With `CC(C)C[C@H](NC(=O)[C@H](Cc1ccccc1)NC(=O)[C@@H](NC(=O)[C@H](CC(C)C)NC(=O)[C@H](CC(=O)O)NC(=O)[C@H](CCCCN)NC(=O)[C@H](C)NC(=O)[C@@H](NC(=O)[C@H](CC(C)C)NC(=O)[C@@H](NC(=O)[C@H](C)N)[C@@H](C)O)[C@@H](C)O)[C@@H](C)O)C(=O)N[C@@H](CCC(N)=O)C(=O)N[C@@H](CC(=O)O)C(=O)N[C@@H](Cc1ccc(O)cc1)C(=O)N[C@@H](CCCCN)C(=O)N[C@@H](CCCCN)C(=O)N[C@H](C(=O)N[C@@H](CCCCN)C(=O)N[C@@H](CCCCN)C(=O)N[C@@H](CCCN=C(N)N)C(=O)N[C@H](C(=O)N[C@@H](CCCCN)C(=O)O)C(C)C)[C@@H](C)O` [ATLTAKDLTFLQDYKKTKKRVK], the MIC in assay [1] was 20 µM (≈ 51.9 µg/mL); in assay [2] it was not below 40 µM; in [3] it was 20 µM (≈ 51.9 µg/mL); in assay [4] it was 10 µM (≈ 26 µg/mL); in assay [5], 20 µM (≈ 51.9 µg/mL).
`CC[C@H](C)[C@H](NC(=O)CNC(=O)[C@H](C)NC(=O)[C@H](CC(C)C)NC(=O)[C@H](C)NC(=O)[C@@H]1CCCN1C(=O)[C@H](CC(C)C)NC(=O)[C@@H](N)Cc1ccccc1)C(=O)N[C@@H](C)C(=O)NCC(=O)N[C@@H](CC(C)C)C(=O)N[C@@H](CC(C)C)C(=O)NCC(=O)N[C@@H](CCCCN)C(=O)N[C@H](C(=O)N[C@@H](Cc1ccccc1)C(N)=O)[C@@H](C)CC` [FLPALAGIAGLLGKIF]: the MIC in assay [6] was 12.5 µM (≈ 20 µg/mL); in assay [7], not below 50 µM; in assay [8], 3.12 µM (≈ 4.99 µg/mL); in assay [9] it was not below 100 µM; in [10] it was 1.56 µM (≈ 2.5 µg/mL); in assay [11] it was 12.5 µM (≈ 20 µg/mL). The MIC is 5 µM (≈ 8 µg/mL) in assay [12]; not below 50 µM in assay [13]; not below 100 µM in [14]; 25 µM (≈ 40 µg/mL) in assay [15]; 60 µM (≈ 96 µg/mL) in assay [16]; not below 50 µM in [17]. Besides, the MIC in assay [18] was 3.12 µM (≈ 4.99 µg/mL); in assay [19], 3.1 µM (≈ 4.96 µg/mL); in assay [20] it was 25 µM (≈ 40 µg/mL); in [21] it was 3.12 µM (≈ 4.99 µg/mL); in assay [22] it was not below 100 µM.
For `CC[C@H](C)[C@H](NC(=O)[C@H](CCC(N)=O)NC(=O)[C@H](CO)NC(=O)[C@H](C)NC(=O)[C@H](CC(C)C)NC(=O)[C@H](Cc1cnc[nH]1)NC(=O)[C@@H](NC(=O)[C@H](CC(C)C)NC(=O)[C@H](CC(C)C)NC(=O)[C@H](CCC(=O)O)NC(=O)[C@H](CCCCN)NC(=O)CNC(=O)[C@H](C)NC(=O)CNC(=O)[C@H](CCCCN)NC(=O)[C@H](Cc1ccccc1)NC(=O)[C@H](Cc1ccccc1)NC(=O)[C@H](CC(=O)O)NC(=O)[C@H](CC(C)C)NC(=O)[C@H](CC(C)C)NC(=O)CN)[C@@H](C)O)C(N)=O` [GLLDFFKGAGKELLTHLASQI], the MIC in assay [23] was not below 250 µM; in assay [3], 125 µM (≈ 282 µg/mL); in [24], not below 250 µM; in [25], not below 125 µM; in assay [26], not below 250 µM; in assay [27], not below 125 µM. In addition, the minimum inhibitory concentration (MIC) in [16] is more than 125 µM; in [28], not below 250 µM; in [17] it was not below 62.5 µM.
In [29], `CC[C@H](C)[C@H](N)C(=O)N[C@@H](CC(C)C)C(=O)N1CCC[C@H]1C(=O)N[C@@H](CC(C)C)C(=O)N[C@@H](CC(C)C)C(=O)N[C@@H](CCCCN)C(=O)N[C@@H](CCCCN)C(=O)N[C@@H](Cc1ccccc1)C(=O)NCC(=O)N[C@@H](CCCCN)C(=O)N[C@@H](CCCCN)C(=O)N[C@@H](Cc1ccccc1)C(=O)NCC(=O)N[C@@H](CCCCN)C(=O)N[C@@H](CCCCN)C(=O)N[C@H](C(=O)N[C@@H](Cc1c[nH]c2ccccc12)C(=O)N[C@@H](CCCCN)C(=O)N[C@@H](C)C(=O)N[C@@H](CC(C)C)C(N)=O)C(C)C` [ILPLLKKFGKKFGKKVWKAL] yielded an MIC of 10.7 µM (≈ 25 µg/mL).
On to `CC[C@H](C)[C@H](N)C(=O)N[C@@H](CC(C)C)C(=O)N[C@@H](Cc1c[nH]c2ccccc12)C(=O)N[C@@H](C)C(=O)N[C@@H](CS)C(=O)N[C@@H](Cc1c[nH]c2ccccc12)C(=O)NCC(=O)N[C@@H](CC(C)C)C(=O)N[C@@H](CCCCN)C(=O)N[C@@H](CC(C)C)C(=O)N[C@@H](CC(C)C)C(=O)N[C@@H](CCCN=C(N)N)C(=O)N[C@@H](Cc1ccc(O)cc1)C(=O)N[C@@H](CCCN=C(N)N)C(=O)N[C@@H](CCCN=C(N)N)C(=O)N[C@H](C(=O)N[C@@H](Cc1ccc(O)cc1)C(=O)O)[C@@H](C)CC` [ILWACWGLKLLRYRRIY], for which the MIC in [30] was 16 µM (≈ 35.6 µg/mL); in assay [31] it was not below 128 µM.
In assay [32], `CC[C@H](C)[C@H](NC(=O)[C@H](CC(=O)O)NC(=O)[C@H](Cc1ccccc1)NC(=O)[C@H](CC(C)C)NC(=O)[C@@H](N)CCCCN)C(=O)N[C@H](C(=O)N[C@@H](CCCCN)C(=O)N[C@@H](CCCCN)C(=O)N[C@H](C(=O)N[C@H](C(=O)NCC(=O)N[C@@H](C)C(=O)N[C@@H](CC(C)C)C(=O)NCC(N)=O)C(C)C)C(C)C)C(C)C` [KLFDIVKKVVGALG] had an MIC not below 100 µM.
For `CC(C)C[C@H](NC(=O)[C@H](Cc1c[nH]c2ccccc12)NC(=O)[C@H](CCCCN)NC(=O)[C@H](CCCN=C(N)N)NC(=O)[C@H](Cc1c[nH]c2ccccc12)NC(=O)[C@@H](NC(=O)CNC(=O)[C@@H](NC(=O)[C@H](Cc1c[nH]c2ccccc12)NC(=O)[C@H](CCCN=C(N)N)NC(=O)[C@H](CCCCN)NC(=O)[C@H](Cc1c[nH]c2ccccc12)NC(=O)[C@@H](N)CC(C)C)C(C)C)C(C)C)C(N)=O` [LWKRWVGVWRKWL], the MIC in assay [33] came out at 7 µM (≈ 12.7 µg/mL); in [34], 5 µM (≈ 9.06 µg/mL); in assay [35], 20 µM (≈ 36.2 µg/mL); in assay [36], 0.6 µM (≈ 1.09 µg/mL); in [37] it was 10 µM (≈ 18.1 µg/mL); in assay [38] it was 20 µM (≈ 36.2 µg/mL).
